Experimental data reported in PubChem BioAssay AID1963833 (Molecular Pharmacology Branch, DTP, NCI, 2024).

Tested on: 883617-216-R-J1-PDC complex spheroid viability
Assay: Anticancer human tumor 883617-216-R-J1-PDC patient-derived bladder carcinoma cell line growth inhibition [POLQ]
Settings: for IC50: curve of first compound; for viability, T/C: stronger effect = lower value; active means viability on the fitted dose curve at most 10% of control; inactive means the rest
Method in brief: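 PDC + HUVEC + MSC complex spheroids; POLQ inhibitors ± partner drugs; top conc. at/near clinical Cmax, else 10 microM (SN-38 1 microM), half-log dilutions; 37 degrees C, 5% CO2.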

[1] = second compound 0.0316 µM, first compound 0.0316 µM
[2] = second compound 0.0316 µM, first compound 0.1 µM
[3] = second compound 0.0316 µM, first compound 0.316 µM
[4] = second compound 0.0316 µM, first compound 1 µM
[5] = second compound 0.0316 µM, first compound 3.16 µM
[6] = second compound 0.0316 µM, first compound 10 µM
[7] = second compound 0.1 µM, first compound 0.0316 µM
[8] = second compound 0.1 µM, first compound 0.1 µM
[9] = second compound 0.1 µM, first compound 0.316 µM
[10] = second compound 0.1 µM, first compound 1 µM
[11] = second compound 0.1 µM, first compound 3.16 µM
[12] = second compound 0.1 µM, first compound 10 µM
[13] = second compound 0.316 µM, first compound 0.0316 µM
[14] = second compound 0.316 µM, first compound 0.1 µM
[15] = second compound 0.316 µM, first compound 0.316 µM
[16] = second compound 0.316 µM, first compound 1 µM
[17] = second compound 0.316 µM, first compound 3.16 µM
[18] = second compound 0.316 µM, first compound 10 µM
[19] = second compound 1 µM, first compound 0.0316 µM
[20] = second compound 1 µM, first compound 0.1 µM
[21] = second compound 1 µM, first compound 0.316 µM
[22] = second compound 1 µM, first compound 1 µM
[23] = second compound 1 µM, first compound 3.16 µM
[24] = second compound 1 µM, first compound 10 µM
[25] = second compound 3.16 µM, first compound 0.0316 µM
[26] = second compound 3.16 µM, first compound 0.1 µM
[27] = second compound 3.16 µM, first compound 0.316 µM
[28] = second compound 3.16 µM, first compound 1 µM
[29] = second compound 3.16 µM, first compound 3.16 µM
[30] = second compound 3.16 µM, first compound 10 µM
[31] = second compound 10 µM, first compound 0.0316 µM
[32] = second compound 10 µM, first compound 0.1 µM
[33] = second compound 10 µM, first compound 0.316 µM
[34] = second compound 10 µM, first compound 1 µM
[35] = second compound 10 µM, first compound 3.16 µM
[36] = second compound 10 µM, first compound 10 µM
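Further: spheroids exposed to compounds for seven days before readout.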
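Wherever viability, T/C is given: 100% = DMSO vehicle control viability.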

O=c1[nH]cc(F)c(=O)[nH]1 + Nc1ccc(C#CCN(C(=O)Cc2ncc(C(F)(F)F)cc2C(F)(F)F)c2ccc(F)cc2)nn1
> 10 µM: IC50 (second compound 0.0316 µM) | IC50 (second compound 0.1 µM) | IC50 (second compound 0.316 µM) | IC50 (second compound 1 µM) | IC50 (second compound 3.16 µM) | IC50 (second compound 10 µM)
inactive: viability, T/C [1] 112% | viability, T/C [2] 105% | viability, T/C [3] 93.2% | viability, T/C [4] 87.1% | viability, T/C [5] 94.2% | viability, T/C [6] 70.3% | viability, T/C [7] 102% | viability, T/C [8] 108% | viability, T/C [9] 101% | viability, T/C [10] 105% | viability, T/C [11] 93.3% | viability, T/C [12] 81.2% | viability, T/C [13] 103% | viability, T/C [14] 106% | viability, T/C [15] 107% | viability, T/C [16] 92.7% | viability, T/C [17] 94.7% | viability, T/C [18] 82.4% | viability, T/C [19] 93.5% | viability, T/C [20] 115% | viability, T/C [21] 99.2% | viability, T/C [22] 110% | viability, T/C [23] 105% | viability, T/C [24] 80.6% | viability, T/C [25] 100% | viability, T/C [26] 107% | viability, T/C [27] 101% | viability, T/C [28] 110% | viability, T/C [29] 103% | viability, T/C [30] 82.2% | viability, T/C [31] 128% | viability, T/C [32] 112% | viability, T/C [33] 120% | viability, T/C [34] 108% | viability, T/C [35] 104% | viability, T/C [36] 94.1%

COc1cccc(OCCCN)c1-c1cc(Nc2cnc(C#N)cn2)n[nH]1 + COC1C(OC(N)=O)C(O)C(Oc2ccc3c(O)c(NC(=O)c4ccc(O)c(CC=C(C)C)c4)c(=O)oc3c2C)OC1(C)C
0.0215 µM: IC50 (second compound 3.16 µM)
0.0389 µM: IC50 (second compound 0.0316 µM)
0.0332 µM: IC50 (second compound 0.1 µM)
0.0589 µM: IC50 (second compound 0.316 µM)
inactive: viability, T/C (second compound 0.0316 µM, first compound 0.00316 µM) 83.3% | viability, T/C (second compound 0.0316 µM, first compound 0.01 µM) 73.8% | viability, T/C [1] 46.9% | viability, T/C [2] 42.4% | viability, T/C [3] 28.1% | viability, T/C [4] 23.4% | viability, T/C (second compound 0.1 µM, first compound 0.00316 µM) 91% | viability, T/C (second compound 0.1 µM, first compound 0.01 µM) 76.8% | viability, T/C [7] 46.5% | viability, T/C [8] 40.4% | viability, T/C [9] 27.6% | viability, T/C [10] 27.1% | viability, T/C (second compound 0.316 µM, first compound 0.00316 µM) 85.6% | viability, T/C (second compound 0.316 µM, first compound 0.01 µM) 67.3% | viability, T/C [13] 66.3% | viability, T/C [14] 37.6% | viability, T/C [15] 32.5% | viability, T/C [16] 30% | viability, T/C (second compound 1 µM, first compound 0.00316 µM) 90.8% | viability, T/C (second compound 1 µM, first compound 0.01 µM) 69.9% | viability, T/C [19] 42.6% | viability, T/C [20] 35.4% | viability, T/C [21] 27.7% | viability, T/C [22] 27.2% | viability, T/C (second compound 3.16 µM, first compound 0.00316 µM) 88.2% | viability, T/C (second compound 3.16 µM, first compound 0.01 µM) 62.2% | viability, T/C [25] 41.4% | viability, T/C [26] 37.5% | viability, T/C [27] 39.6% | viability, T/C [28] 27.4% | viability, T/C (second compound 10 µM, first compound 0.00316 µM) 92.2% | viability, T/C (second compound 10 µM, first compound 0.01 µM) 75.2% | viability, T/C [31] 50.9% | viability, T/C [32] 36.2% | viability, T/C [33] 35% | viability, T/C [34] 25.7%
0.0244 µM: IC50 (second compound 1 µM)
0.0365 µM: IC50 (second compound 10 µM)

CCCS(=O)(=O)Nc1ccc(F)c(C(=O)c2c[nH]c3ncc(-c4ccc(Cl)cc4)cc23)c1F + COC1C(OC(N)=O)C(O)C(Oc2ccc3c(O)c(NC(=O)c4ccc(O)c(CC=C(C)C)c4)c(=O)oc3c2C)OC1(C)C
9.07 µM: IC50 (second compound 1 µM)
9.58 µM: IC50 (second compound 0.1 µM)
inactive: viability, T/C [1] 90.3% | viability, T/C [2] 103% | viability, T/C [3] 103% | viability, T/C [4] 94.2% | viability, T/C [5] 84.6% | viability, T/C [6] 42.9% | viability, T/C [7] 105% | viability, T/C [8] 119% | viability, T/C [9] 108% | viability, T/C [10] 105% | viability, T/C [11] 76.8% | viability, T/C [12] 49% | viability, T/C [13] 102% | viability, T/C [14] 102% | viability, T/C [15] 102% | viability, T/C [16] 103% | viability, T/C [17] 90% | viability, T/C [18] 50.1% | viability, T/C [19] 103% | viability, T/C [20] 93.9% | viability, T/C [21] 106% | viability, T/C [22] 98.5% | viability, T/C [23] 100% | viability, T/C [24] 45.3% | viability, T/C [25] 94.8% | viability, T/C [26] 88% | viability, T/C [27] 103% | viability, T/C [28] 105% | viability, T/C [29] 96.4% | viability, T/C [30] 56.4% | viability, T/C [31] 106% | viability, T/C [32] 96.7% | viability, T/C [33] 97.3% | viability, T/C [34] 103% | viability, T/C [35] 93.2% | viability, T/C [36] 45.4%
> 10 µM: IC50 (second compound 0.316 µM) | IC50 (second compound 3.16 µM)
8.99 µM: IC50 (second compound 10 µM)
8.23 µM: IC50 (second compound 0.0316 µM)
